Values joined by “and” are separate entries in the source; they are usually repeats but may differ in a detail not shown here. Equal values may be shown once.
Experiments:
Assay type in all cases: cell-based, human
[1] = system: PANC1 cells; experiment: Western blotting (p-p53, p-JNK, p-p38, p-ERK, p-CHK1/2, Mcl1, BID, BAX); conditions: PANC1, Fig. 4A, replicate values
Experimental: Total protein extracts were obtained by adding the lysis buffer: 25 mM HEPES pH 7.5, 0.3 M NaCl, 1.5 mM MgCl2, 0.2 mM EDTA, 0.5 mM DTT, 20 mM β-glicerophosphate, 0.1 mM Na3VO4, 0.1% triton X-100; in the presence of protease inhibitors. Twenty μg of protein per sample were loaded and resolved using 8%, 10% or 15% SDS-PAGE polyacrylamide gels, and then transferred onto PVDF membranes, followed by immunodetection using appropriate antibodies, purchased from Santa Cruz Technology: Mcl-1 (sc-819), Cell Signaling Technology: BIM, BID, BAX (#9942), p-p38 (1:2000, #4631), p-p53^ser15 (#9284), p-ERK1/2 (1:2000, #9106), p-CHK1^ser345 and p-CHK2^ser19 (#9931), Promega Corporation-Spain: p-JNK (#V7932), or Sigma-Aldrich: α-tubulin (1:10000, #TP026). Unless indicated, all antibodies were diluted 1:1000. Secondary antibodies conjugated with horseradish peroxidase were purchased from BioRad, and chemiluminescence detection was performed using ECL (Santa Cruz Biotechnology).

[2] = system: AGS cells; experiment: Immunofluorescence of γ-H2AX and 53BP1 foci; conditions: for foci/cell, share of cells in class (Suma 100) / foci/cell, number of cells in class: Fig. 3B; for foci/cell, number of cells in class: cell count
Experimental: (§1) Cells (7 × 10^4) were seeded on 20 mm coverslips. […] Coverslips were incubated for 1 h with the primary antibody (Cell Signaling: H2AX Ser139 (#2595) and 53BP1 (#4937)) at room temperature, followed by a 1 h incubation with the appropriate secondary antibody. DNA was stained with DAPI. Fluorescence microscopy was performed using a NIKON Eclipse 90i. The image analysis was performed using the software program Nikon NIS-Elements and Image J.

[3] = system: PANC1 cells; experiment: Immunofluorescence of γ-H2AX and 53BP1 foci; conditions: for foci/cell, share of cells in class (Suma 100) / foci/cell, number of cells in class: PANC1, Fig. 3B; for foci/cell, number of cells in class: cell count
Experimental: as §1

With `[NH2][Pt]([NH2])([Cl])[Cl]` [CDDP, cisplatin, reference compound] the “fold change p-p38 vs Tubulin” value ([1]; Time 6 h) was 0.8737 fold change and 0.5515 fold change and 0.5907 fold change, the “fold change p-p53 vs Tubulin” value ([1]; Time 6 h) was 2.227 fold change and 1.131 fold change and 2.015 fold change and the “fold change p-ERK vs Tubulin” value ([1]; Time 24 h) was 0.8571 fold change and 2.648 fold change and 1.55 fold change. For the same compound, the “fold change p-JNK vs Tubulin” value ([1]; Time 24 h) was 0.8188 fold change and 0.748 fold change and 1.253 fold change, the “fold change p-p38 vs Tubulin” value ([1]; Time 24 h) was 1.702 fold change and 0.3951 fold change and 0.5063 fold change and the “fold change p-p53 vs Tubulin” value ([1]; Time 24 h) was 2.03 fold change and 4.05 fold change and 2.63 fold change. The “foci/cell, share of cells in class (Suma 100)” value (shortened to “foci/cell, share of cells”) ([2]; class 16-30 foci/cell) was 23.0769, the “foci/cell, number of cells in class” value ([2]; class 16-30 foci/cell) was 18 and the “foci/cell, share of cells” value ([2]; class 31-45 foci/cell) was 26.9231. For the same compound, the “foci/cell, number of cells in class” value ([2]; class 31-45 foci/cell) was 21, the “foci/cell, share of cells” value ([2]; class 46-60 foci/cell) was 21.7949 and the “foci/cell, number of cells in class” value ([2]; class 46-60 foci/cell) was 17. For the same compound, the “foci/cell, share of cells” value ([2]; class <15 foci/cell) was 21.7949, the “foci/cell, number of cells in class” value ([2]; class <15 foci/cell) was 17 and the “foci/cell, share of cells” value ([2]; class >61 foci/cell) was 6.41. For the same compound, the “foci/cell, number of cells in class” value ([2]; class >61 foci/cell) was 5, the “foci/cell: number of cells with 16-30 foci” value ([2]; Fig. S4B, cell counts) was 35 and the “foci/cell: number of cells with 31-45 foci” value ([2]; Fig. S4B, cell counts) was 15. The “foci/cell: number of cells with 46-60 foci” value ([2]; Fig. S4B, cell counts) was 5, the “foci/cell: number of cells with <15 foci” value ([2]; Fig. S4B, cell counts) was 45 and the “foci/cell: number of cells with >61 foci” value ([2]; Fig. S4B, cell counts) was 4. The “foci/cell: share of cells with 16-30 foci (Suma 100)” value ([2]; Fig. S4B, share of N) was 33.6538, the “foci/cell: share of cells with 31-45 foci (Suma 100)” value ([2]; Fig. S4B, share of N) was 14.4231 and the “foci/cell: share of cells with 46-60 foci (Suma 100)” value ([2]; Fig. S4B, share of N) was 4.808. For the same compound, the “foci/cell: share of cells with <15 foci (Suma 100)” value ([2]; Fig. S4B, share of N) was 43.2692, the “foci/cell: share of cells with >61 foci (Suma 100)” value ([2]; Fig. S4B, share of N) was 3.846 and the “foci/cell: number of cells with 16-30 foci” value ([3]; PANC1, Fig. S4B, cell counts) was 32. For the same compound, the “foci/cell: number of cells with 31-45 foci” value ([3]; PANC1, Fig. S4B, cell counts) was 36, the “foci/cell: number of cells with 46-60 foci” value ([3]; PANC1, Fig. S4B, cell counts) was 25 and the “foci/cell: number of cells with <15 foci” value ([3]; PANC1, Fig. S4B, cell counts) was 21. For the same compound, the “foci/cell: number of cells with >61 foci” value ([3]; PANC1, Fig. S4B, cell counts) was 22, the “foci/cell: share of cells with 16-30 foci (Suma 100)” value ([3]; PANC1, Fig. S4B, share of N) was 23.5294 and the “foci/cell: share of cells with 31-45 foci (Suma 100)” value ([3]; PANC1, Fig. S4B, share of N) was 26.4706. The “foci/cell: share of cells with 46-60 foci (Suma 100)” value ([3]; PANC1, Fig. S4B, share of N) was 18.3824, the “foci/cell: share of cells with <15 foci (Suma 100)” value ([3]; PANC1, Fig. S4B, share of N) was 15.4412 and the “foci/cell: share of cells with >61 foci (Suma 100)” value ([3]; PANC1, Fig. S4B, share of N) was 16.1765. For the same compound, the “foci/cell, share of cells” value ([3]; class 16-30 foci/cell) was 10, the “foci/cell, number of cells in class” value ([3]; class 16-30 foci/cell) was 11 and the “foci/cell, share of cells” value ([3]; class 31-45 foci/cell) was 23.6364. The “foci/cell, number of cells in class” value ([3]; class 31-45 foci/cell) was 26, the “foci/cell, share of cells” value ([3]; class 46-60 foci/cell) was 20 and the “foci/cell, number of cells in class” value ([3]; class 46-60 foci/cell) was 22. For the same compound, the “foci/cell, share of cells” value ([3]; class <15 foci/cell) was 6.364, the “foci/cell, number of cells in class” value ([3]; class <15 foci/cell) was 7 and the “foci/cell, share of cells” value ([3]; class >61 foci/cell) was 40. The “foci/cell, number of cells in class” value ([3]; class >61 foci/cell) was 44.

Reference: paper PMC10959927, “Platinum iodido drugs show potential anti-tumor activity, affecting cancer cell metabolism and inducing ROS and senescence in gastrointestinal cancer cells” (Communications Biology, 2024)
